According to ChEMBL document CHEMBL1201862, “PubChem BioAssay data set” (2004):
Activity calls are given as the source filed them.

Experiments:
Procathepsin L = Procathepsin L (Homo sapiens, UniProt P07711); experiment: cathepsin L inhibitors, dose response, counter-screen for M1/M17 aminopeptidase inhibitor project, biochemical, QFRET, 1536-well (AID 2214)
Aminopeptidase N = target: T1, Aminopeptidase N (Plasmodium falciparum FcB1/Columbia, UniProt O96935); experiment: P. falciparum M1AAP inhibitors, biochemical, fluorogenic H-Leu-NHMec substrate, 1536-well (AID 1445); parameters: species or system Plasmodium falciparum 3D7, 3D7
T1 sequence (O96935 whole entry): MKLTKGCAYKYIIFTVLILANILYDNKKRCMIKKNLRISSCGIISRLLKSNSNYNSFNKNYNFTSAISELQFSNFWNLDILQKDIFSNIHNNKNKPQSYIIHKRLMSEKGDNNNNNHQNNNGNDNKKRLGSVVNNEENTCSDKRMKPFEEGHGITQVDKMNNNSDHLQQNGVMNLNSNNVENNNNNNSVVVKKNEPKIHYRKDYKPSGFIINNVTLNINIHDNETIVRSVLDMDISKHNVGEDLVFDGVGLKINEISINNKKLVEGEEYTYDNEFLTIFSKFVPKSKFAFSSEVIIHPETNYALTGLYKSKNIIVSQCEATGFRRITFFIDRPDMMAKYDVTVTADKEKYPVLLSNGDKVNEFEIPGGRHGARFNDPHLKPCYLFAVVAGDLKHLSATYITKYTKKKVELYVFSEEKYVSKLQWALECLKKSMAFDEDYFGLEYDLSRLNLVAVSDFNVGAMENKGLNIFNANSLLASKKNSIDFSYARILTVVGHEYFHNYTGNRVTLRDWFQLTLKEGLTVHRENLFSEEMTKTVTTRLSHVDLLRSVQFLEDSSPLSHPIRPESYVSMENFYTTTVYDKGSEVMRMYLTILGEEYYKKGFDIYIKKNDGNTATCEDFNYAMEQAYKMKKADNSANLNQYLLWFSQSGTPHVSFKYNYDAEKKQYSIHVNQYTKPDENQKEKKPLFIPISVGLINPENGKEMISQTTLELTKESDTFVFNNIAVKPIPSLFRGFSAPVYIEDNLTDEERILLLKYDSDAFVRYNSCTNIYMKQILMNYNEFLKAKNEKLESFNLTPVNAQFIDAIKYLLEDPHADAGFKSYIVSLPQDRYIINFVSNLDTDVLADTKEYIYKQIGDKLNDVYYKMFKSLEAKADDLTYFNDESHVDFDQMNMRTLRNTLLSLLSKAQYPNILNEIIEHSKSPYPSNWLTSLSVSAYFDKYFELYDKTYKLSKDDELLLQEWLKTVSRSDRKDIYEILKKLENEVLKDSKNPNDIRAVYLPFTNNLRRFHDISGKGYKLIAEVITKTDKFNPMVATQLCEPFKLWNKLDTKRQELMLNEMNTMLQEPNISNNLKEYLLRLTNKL

Aspartyl aminopeptidase = Aspartyl aminopeptidase (Plasmodium falciparum 3D7, UniProt Q8I2J3); experiment: Counterscreen for inhibitors of M1 and M17 aminopeptidases: QFRET-based biochemical high throughput dose response assay for inhibitors of the Plasmodium falciparum M18 Aspartyl Aminopeptidase (PFM18AAP). [Related PubChem assays: 1619 (Screening assay (M17LAP inhibitors).), 1445 (Screening assay (M1AAP inhibitors).)]
[1] = inhibitors of Bluetongue virus cytopathic effect, confirmation, arbovirus, BSR cells (AID 1250); assay type: functional;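 also: protection from viral cytopathic effect measured as cell viability by ATP luminescence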
[2] = target: Long-chain-fatty-acid--AMP ligase FadD28 (Mycobacterium tuberculosis, UniProt P9WQ59); experiment: Fluorescence polarization aasay to screen for inhibitors that compete for the binding of FadD28 to a bisubstrate Measured in Biochemical System Using Plate Reader - 2147-01_Inhibitor_Dose_CherryPick_Activity.; assay type: functional, Mycobacterium tuberculosis H37Rv
[3] = HEp-2 cell cytotoxicity, dose response, cytotoxicity control for RSV inhibitor project, HTS (AID 2410); assay type: functional; conditions: human respiratory syncytial virus
[4] = target: Sphingosine 1-phosphate receptor 2 (Homo sapiens, UniProt O95136); experiment: Dose Response Cell Based Assay for Agonists of the S1P2 Receptor of Purchased Analogues. [Related pubchem assays: 729, 843, 854, 736 ]; assay type: functional
[5] = target: T2, Neuropeptide Y receptor type 1 (Homo sapiens, UniProt P25929); assay type: functional;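 also: HEK293 cells with a CNG channel challenged with NPY then isoproterenol; potency as antagonist that reverses NPY suppression of cAMP signal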
T2 sequence (P25929 whole entry): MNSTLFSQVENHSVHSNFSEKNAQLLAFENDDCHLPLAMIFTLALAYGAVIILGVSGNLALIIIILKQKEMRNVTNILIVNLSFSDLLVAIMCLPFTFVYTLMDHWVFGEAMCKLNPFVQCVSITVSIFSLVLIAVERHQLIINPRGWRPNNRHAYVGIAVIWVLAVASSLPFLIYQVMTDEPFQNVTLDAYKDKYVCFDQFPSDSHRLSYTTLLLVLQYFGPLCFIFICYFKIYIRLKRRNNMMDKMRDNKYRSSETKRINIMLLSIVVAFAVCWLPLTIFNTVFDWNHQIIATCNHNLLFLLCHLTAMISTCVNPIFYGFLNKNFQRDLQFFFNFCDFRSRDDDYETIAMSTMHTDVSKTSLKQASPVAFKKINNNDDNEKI

[6] = target: T3, Neuropeptide Y receptor type 2 (Homo sapiens, UniProt P49146); assay type: functional, cell-based;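 also: HEK293 cells expressing the receptor and a CNG channel; stimulus was NPY near EC95 followed by isoproterenol to raise cAMP; antagonist potency measured as restoring cAMP signal that NPY suppresses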
T3 sequence (P49146 whole entry): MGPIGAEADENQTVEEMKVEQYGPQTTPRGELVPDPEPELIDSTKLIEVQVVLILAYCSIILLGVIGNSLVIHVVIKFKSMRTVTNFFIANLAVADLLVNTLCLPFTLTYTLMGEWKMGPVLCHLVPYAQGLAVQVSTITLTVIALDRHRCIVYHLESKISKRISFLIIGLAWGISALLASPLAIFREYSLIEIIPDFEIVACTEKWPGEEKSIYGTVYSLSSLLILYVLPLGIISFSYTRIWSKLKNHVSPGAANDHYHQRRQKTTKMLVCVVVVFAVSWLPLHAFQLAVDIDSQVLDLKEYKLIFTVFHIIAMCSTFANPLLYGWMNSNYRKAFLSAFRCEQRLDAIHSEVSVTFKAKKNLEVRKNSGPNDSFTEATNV

[7] = target: Luciferin 4-monooxygenase (Photinus pyralis, UniProt P08659); experiment: Counter Screen for Luciferase-based Assay Positives. [Related pubchem assays: 620, 618, 411 ]
HT-1080 = experiment: cytotoxicity in HT1080 fibrosarcoma cells, cell-based, fluorescence readout (AID 620); assay type: functional; conditions: Homo sapiens
[8] = inhibitors of SNCA 5'UTR-driven reporter translation, confirmation, H4 neuroglioma cells, luminescence (AID 1988); assay type: functional, cell-based
[9] = Luminescence Cell-Based Dose Confirmation HTS to Identify Inhibitors of Polyadenylation.; assay type: functional
[10] = Luminescence Cell-Based Dose Response HTS to Identify Inhibitors of 5'UTR Stem-Loop Driven Prion Protein mRNA Translation in H4 Neuroglioblastoma Cells. [Related pubchem assays: 1827 (Project Summary), 1813 (Primary HTS)]; assay type: functional

Sequence of Long-chain-fatty-acid--AMP ligase FadD28 (P9WQ59 whole entry): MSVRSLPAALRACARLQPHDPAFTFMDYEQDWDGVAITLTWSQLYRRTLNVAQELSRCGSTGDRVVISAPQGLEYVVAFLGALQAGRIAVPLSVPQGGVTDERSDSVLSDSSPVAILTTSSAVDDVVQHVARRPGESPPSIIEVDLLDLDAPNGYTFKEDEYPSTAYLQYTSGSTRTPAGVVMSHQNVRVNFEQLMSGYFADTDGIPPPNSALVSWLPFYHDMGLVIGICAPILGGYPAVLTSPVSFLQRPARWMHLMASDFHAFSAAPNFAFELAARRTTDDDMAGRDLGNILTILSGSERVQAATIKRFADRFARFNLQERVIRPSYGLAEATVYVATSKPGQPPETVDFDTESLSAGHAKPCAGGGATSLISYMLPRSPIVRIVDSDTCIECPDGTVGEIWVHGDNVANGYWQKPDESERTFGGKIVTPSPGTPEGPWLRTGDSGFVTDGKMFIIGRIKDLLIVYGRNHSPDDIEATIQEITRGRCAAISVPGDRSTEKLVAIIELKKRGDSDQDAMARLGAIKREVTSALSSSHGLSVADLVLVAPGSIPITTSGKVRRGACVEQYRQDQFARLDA
Sequence of Procathepsin L (P07711 whole entry): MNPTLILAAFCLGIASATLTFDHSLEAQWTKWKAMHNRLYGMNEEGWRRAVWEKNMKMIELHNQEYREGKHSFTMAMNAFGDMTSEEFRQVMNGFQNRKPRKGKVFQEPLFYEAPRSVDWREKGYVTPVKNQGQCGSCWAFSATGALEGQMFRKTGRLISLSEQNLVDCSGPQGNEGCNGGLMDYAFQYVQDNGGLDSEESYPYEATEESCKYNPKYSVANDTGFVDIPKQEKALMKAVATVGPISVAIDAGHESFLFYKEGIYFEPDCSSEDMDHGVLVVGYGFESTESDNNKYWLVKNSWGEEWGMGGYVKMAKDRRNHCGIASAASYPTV
Sequence of Sphingosine 1-phosphate receptor 2 (O95136 whole entry): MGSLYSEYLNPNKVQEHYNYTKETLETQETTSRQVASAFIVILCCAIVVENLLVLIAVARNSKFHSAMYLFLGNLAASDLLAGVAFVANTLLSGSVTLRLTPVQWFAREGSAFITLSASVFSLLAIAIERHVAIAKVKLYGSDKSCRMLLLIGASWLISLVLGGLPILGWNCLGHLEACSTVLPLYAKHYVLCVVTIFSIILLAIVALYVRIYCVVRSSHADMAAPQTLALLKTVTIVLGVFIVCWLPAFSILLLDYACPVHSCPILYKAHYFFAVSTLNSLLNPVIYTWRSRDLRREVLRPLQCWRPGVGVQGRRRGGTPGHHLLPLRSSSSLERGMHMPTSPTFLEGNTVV
Sequence of Aspartyl aminopeptidase (Q8I2J3 whole entry): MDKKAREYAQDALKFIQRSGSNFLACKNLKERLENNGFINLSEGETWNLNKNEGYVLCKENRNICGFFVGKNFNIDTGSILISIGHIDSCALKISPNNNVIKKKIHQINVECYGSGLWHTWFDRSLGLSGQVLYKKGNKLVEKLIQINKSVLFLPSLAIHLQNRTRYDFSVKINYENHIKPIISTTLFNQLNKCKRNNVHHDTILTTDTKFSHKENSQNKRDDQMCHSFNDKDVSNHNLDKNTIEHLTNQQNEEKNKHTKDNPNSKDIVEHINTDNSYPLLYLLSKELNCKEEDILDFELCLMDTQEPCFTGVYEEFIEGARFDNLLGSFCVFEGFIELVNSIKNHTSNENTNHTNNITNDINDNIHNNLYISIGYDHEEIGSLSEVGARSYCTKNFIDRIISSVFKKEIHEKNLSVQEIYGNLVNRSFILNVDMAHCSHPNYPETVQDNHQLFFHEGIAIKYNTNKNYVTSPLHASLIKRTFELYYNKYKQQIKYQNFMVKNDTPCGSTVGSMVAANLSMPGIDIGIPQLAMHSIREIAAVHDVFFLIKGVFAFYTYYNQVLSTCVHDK
Sequence of Luciferin 4-monooxygenase (P08659 whole entry): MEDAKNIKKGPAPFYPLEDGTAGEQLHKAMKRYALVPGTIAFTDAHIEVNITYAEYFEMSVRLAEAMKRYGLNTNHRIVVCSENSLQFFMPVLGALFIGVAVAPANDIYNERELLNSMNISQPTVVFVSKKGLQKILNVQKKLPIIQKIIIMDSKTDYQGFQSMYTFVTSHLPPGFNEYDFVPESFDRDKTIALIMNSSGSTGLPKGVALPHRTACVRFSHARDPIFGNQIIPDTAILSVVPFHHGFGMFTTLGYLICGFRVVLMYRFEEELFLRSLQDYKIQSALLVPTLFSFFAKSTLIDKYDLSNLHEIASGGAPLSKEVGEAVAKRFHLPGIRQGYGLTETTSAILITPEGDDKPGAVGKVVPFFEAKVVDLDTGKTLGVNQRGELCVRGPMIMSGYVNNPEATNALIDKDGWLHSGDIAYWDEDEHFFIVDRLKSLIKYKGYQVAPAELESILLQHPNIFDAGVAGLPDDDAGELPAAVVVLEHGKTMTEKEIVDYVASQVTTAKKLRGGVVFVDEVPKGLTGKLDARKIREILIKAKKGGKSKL

O=C(O)CCC(=O)N1N=C(c2c(-c3ccccc3)c3cc(Cl)ccc3[nH]c2=O)CC1c1ccccc1 (stereo not given)
IC50 (Procathepsin L): > 59.6 µM (not active) | IC50 (Aminopeptidase N): 4.6 µM (active) | IC50 (Aspartyl aminopeptidase): > 73.5 µM (not active)

CCC1=NN2C(=N)/C(=C\c3cccn3-c3c(C)cccc3C)C(=O)N=C2S1
IC50 [1]: 38.4 µM (active) | IC50 (cells): 20.7 µM (active) | AC50 [2]: > 100 µM (inactive) | CC50 [3]: 19.5 µM (active)

Cc1cc(C(=O)COC(=O)Cn2c(=O)oc3ccccc32)c(C)n1Cc1ccccc1
EC50 [4]: > 30 µM (not active)

O=C(C1CCN(Cc2ccc(Cl)cc2)CC1)N1CCN(C(c2ccccc2)c2ccccc2)CC1
IC50 [5]: > 35 µM (not active) | IC50 [6]: > 35 µM (not active)

O=c1c2sc(-c3ccccc3)cc2nc2n1CCC2
EC50 [7]: < 0.2 µM (active) | EC50 (HT-1080): > 50 µM (not active) | EC50 [8]: 8.3 µM (active) | EC50 [9]: > 120 µM (not active) | EC50 [10]: 11.8 µM (inconclusive)
